≈ marks a conversion by molar mass, not a printed value. Where a SMILES comes first, the peptide text is derived from it. [ ]: non-standard residue; d: D form.

Data set [1] relates to E. coli LN175 (mcr-1,NDM). In kind it is cell-based, Escherichia coli.
Description: (§1) The bacterial strains used in this study, including LN175, J27ab-2, K88, AD21R, and 21f54mr-1, were E. coli obtained from the Hunan Veterinary Engineering Research Center (Changsha, Hunan Province). Except for K88, all the strains were multidrug-resistant and carried multiple resistance genes, while K88 was a diarrhea-causing strain containing the ETEC gene.
(§2) The bacterial concentration was adjusted to 1 × 10^5 CFU/mL using a turbidimeter. Then, 100 μL of Mueller–Hinton Broth (MHB) broth was added to wells 1–11 of a 96-well plate, while 200 μL was added to well 12. Then, 100 μL of the drug was added to wells 1–11, which was followed by 100 μL of the bacterial suspension. Results were observed after incubation at 37 °C for 16–24 h.
Data set [2] has as its system multidrug-resistant E. coli strains. Type of data set: cell-based, Escherichia coli.
Description: as §1, §2
Another data set in a line: in vitro. Conditions: pig. In kind it is cell-based, porcine. The protocol:
Porcine small intestinal epithelial cells (IPEC-J2) were cultured in DMEM-F12 medium supplemented with 10% fetal bovine serum (TransGen Biotech, Beijing, China) and 1% penicillin–streptomycin (Beyotime Biotechnology, Shanghai, China). The cells were maintained in a humidified incubator at 37 °C with 5% CO2. Cells were passaged using 0.25% trypsin solution containing ethylenediaminetetraacetic acid (EDTA). Cells were seeded into 96-well plates at a density of 1 × 10⁴ cells per well. After 48 h, they were treated with varying concentrations of D-CONGA-Q7 and incubated with CCK-8 (Beyotime Biotechnology, Shanghai, China) for 1 h. The assay was measured using a […].

The subject of data set [3] is E. coli strain LN175, K88, J27ab-2. As to the kind of experiment: Thermal and acid-base stability, read out as change in MIC. In kind it is physicochemical, Escherichia coli. Conditions: 1.024 mg/mL solution, then adjusted back. On the procedure: For thermal stability, the D-CONGA-Q7 was prepared as a 1.024 mg/mL solution and heated in a water bath at room temperature, 60, 65, 70, 75, 80, 90 and 100 °C for 1 h, and autoclaved at 121 °C for 15 min and then cooled to room temperature, respectively. Acid–base stability, 1.024 mg/mL of D-CONGA-Q7 solution was used to adjust its pH to 2–12 using HCl and NaOH, and the pH of each tube was adjusted back to the initial tube pH after 1 h. The adjustment of solution pH = 3.89 (pH = 3.89 is the pH of D-CONGA-Q7 itself when dissolved) included the above use of the untreated samples as a control.
The antimicrobial activity of D-CONGA-Q7 was evaluated by assessing changes in its MIC against strain LN175, K88, J27ab-2.

The subject of the next data set is erythrocyte. Conditions: cited from earlier work. The source says:
D-CONGA was originally screened from a library of 28,000 peptides using high-throughput synthesis principles and host cell compatibility. […] This study explored the antimicrobial mechanis ...

For orientation: MIC means the smallest concentration in the dilution series that meets the test's criterion for growth inhibition. The low end stands for greater potency, the high end for weaker potency. Usually IC50 stands for the concentration that inhibits the measured activity by half. A low value points to higher potency. The molecule `CC(C)C[C@@H](NC(=O)[C@@H](CCC(N)=O)NC(=O)[C@@H](CCCNC(=N)N)NC(=O)[C@@H](CCCNC(=N)N)NC(=O)[C@@H](C)NC(=O)[C@@H](Cc1c[nH]c2ccccc12)NC(=O)[C@@H](CCCNC(=N)N)NC(=O)[C@H](N)CCCNC(=N)N)C(=O)N[C@H](C)C(=O)N[C@H](Cc1ccccc1)C(=O)N[C@H](C)C(=O)N[C@H](Cc1ccccc1)C(=O)N[C@H](CCCNC(=N)N)C(=O)N[C@H](CCCNC(=N)N)C(N)=O` [D-CONGA-Q7] (H-[dR][dR][dW][dA][dR][dR][dQ][dL][dA][dF][dA][dF][dR][dR]-NH2) returned an MIC in data set [1] of 4 µg/mL (≈ 2.12 µM). Moreover, in data set [2], the “MIC values for all strains tested” value was “less than or equal to 4 μg/mL”. For the same molecule, the IC50 in the data set “in vitro” was 188 µg/mL (≈ 99.8 µM). For the same molecule, the “antimicrobial activity after exposure to pH 12 (acid-base stability)” value in data set [3] (pH 12, 1 h, read-out MIC) was “reduction in activity”. The “antimicrobial activity after exposure to pH 2 to 11 (acid-base stability)” value in data set [3] (pH between 2 and 11 with HCl/NaOH, 1 h, read-out MIC against LN175, K88, J27ab-2) is “retained its antimicrobial activity”. For the same molecule, the erythrocyte hemolytic activity result in the data set on erythrocyte was “minimal erythrocyte hemolytic activity”.

The values above are taken from PMC11940214, “The Antimicrobial Peptide D-CONGA-Q7 Eradicates Drug-Resistant E. coli by Disrupting Bacterial Cell Membranes” (Biology, 2025).
